Tests used:
[1] = biological target: T1, Alpha-2B adrenergic receptor (Homo sapiens, UniProt P18089); assay: Binding affinity to alpha2B receptor (unknown origin) assessed as inhibition constant
T1 sequence (P18089 whole entry): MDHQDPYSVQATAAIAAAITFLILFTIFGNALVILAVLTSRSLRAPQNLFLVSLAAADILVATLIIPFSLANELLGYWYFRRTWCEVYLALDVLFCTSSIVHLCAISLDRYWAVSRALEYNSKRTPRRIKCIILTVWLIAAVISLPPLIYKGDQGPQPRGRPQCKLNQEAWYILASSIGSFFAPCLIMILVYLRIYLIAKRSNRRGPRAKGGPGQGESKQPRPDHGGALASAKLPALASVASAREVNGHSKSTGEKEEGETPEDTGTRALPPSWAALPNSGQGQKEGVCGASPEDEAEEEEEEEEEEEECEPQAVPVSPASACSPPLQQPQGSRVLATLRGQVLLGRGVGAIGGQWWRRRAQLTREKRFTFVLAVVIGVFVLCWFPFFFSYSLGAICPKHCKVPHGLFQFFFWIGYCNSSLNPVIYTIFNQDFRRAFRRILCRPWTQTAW

[2] = biological target: T2, 5-hydroxytryptamine receptor 2A (Homo sapiens, UniProt P28223); assay: Displacement of [3H]ketanserin from human 5-HT2A receptor expressed in HEK293 cells at 10 uM incubated for 1 hr relative to control; type: cell-based
[3] = biological target: T3, Adenosine receptor A3 (Homo sapiens, UniProt P0DMS8); assay: Displacement of […] from human A3AR expressed in HEK cells assessed as inhibition constant; type: cell-based
T3 sequence (P0DMS8 whole entry): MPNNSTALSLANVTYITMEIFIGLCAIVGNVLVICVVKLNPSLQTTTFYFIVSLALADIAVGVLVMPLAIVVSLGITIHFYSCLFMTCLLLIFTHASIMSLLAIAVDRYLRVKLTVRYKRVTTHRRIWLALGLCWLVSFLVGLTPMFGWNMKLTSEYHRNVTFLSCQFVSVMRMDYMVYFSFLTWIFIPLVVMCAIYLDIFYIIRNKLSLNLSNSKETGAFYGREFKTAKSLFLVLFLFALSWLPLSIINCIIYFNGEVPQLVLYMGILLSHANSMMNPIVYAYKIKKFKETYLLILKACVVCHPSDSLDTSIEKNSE

[4] = biological target: Adenosine receptor A2a (Homo sapiens) (UniProt P29274); assay: Displacement of […] from human A2AR expressed in HEK cells at 10 uM relative to control; type: cell-based
[5] = biological target: T4, 5-hydroxytryptamine receptor 2C (Homo sapiens, UniProt P28335); assay: Displacement of [3H]-Mesulergine from human 5-HT2C expressed in Flp-In-T-REx-293 cells assessed as inhibition constant incubated for 1 hr; type: cell-based; conditions: read-out: Ki
T4 sequence (P28335 whole entry): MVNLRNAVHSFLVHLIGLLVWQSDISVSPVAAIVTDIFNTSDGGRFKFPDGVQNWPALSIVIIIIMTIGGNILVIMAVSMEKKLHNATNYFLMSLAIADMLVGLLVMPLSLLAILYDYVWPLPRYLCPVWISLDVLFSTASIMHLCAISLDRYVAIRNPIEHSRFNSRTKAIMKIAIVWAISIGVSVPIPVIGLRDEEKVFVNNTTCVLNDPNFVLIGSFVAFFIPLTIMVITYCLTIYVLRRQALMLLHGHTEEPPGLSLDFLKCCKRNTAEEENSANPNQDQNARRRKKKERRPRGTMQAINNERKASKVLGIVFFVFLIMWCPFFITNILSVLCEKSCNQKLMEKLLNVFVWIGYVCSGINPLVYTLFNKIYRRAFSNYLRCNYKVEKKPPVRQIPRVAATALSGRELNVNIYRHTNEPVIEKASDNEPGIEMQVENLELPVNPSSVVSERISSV

[6] = biological target: Sodium-dependent dopamine transporter (Homo sapiens, UniProt Q01959); assay: Binding affinity to DAT (unknown origin) assessed as inhibition constant
[7] = biological target: T5, Adenosine receptor A1 (Homo sapiens, UniProt P30542); assay: Displacement of […] from human A1AR expressed in Flp-In-T-REx-293 cells assessed as inhibition constant; type: cell-based
T5 sequence (P30542 whole entry): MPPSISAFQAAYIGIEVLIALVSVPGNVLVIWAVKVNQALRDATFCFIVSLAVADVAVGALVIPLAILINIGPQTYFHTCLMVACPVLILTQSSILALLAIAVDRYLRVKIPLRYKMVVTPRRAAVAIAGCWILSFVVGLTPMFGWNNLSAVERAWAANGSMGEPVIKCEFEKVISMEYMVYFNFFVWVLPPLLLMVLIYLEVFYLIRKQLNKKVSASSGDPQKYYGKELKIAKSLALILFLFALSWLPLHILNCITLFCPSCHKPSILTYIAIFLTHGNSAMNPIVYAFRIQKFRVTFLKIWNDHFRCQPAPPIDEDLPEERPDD

[8] = biological target: T6, 5-hydroxytryptamine receptor 2C (Homo sapiens) (UniProt P28335); assay: Binding affinity to 5HT2C receptor (unknown origin) at 10 uM relative to control
T6 sequence (whole entry): T4 sequence (P28335 whole entry)

[9] = biological target: T2, 5-hydroxytryptamine receptor 2A; assay: Binding affinity to 5HT2A receptor (unknown origin) at 10 uM relative to control
[10] = biological target: T7, 5-hydroxytryptamine receptor 2B (Homo sapiens, UniProt P41595); assay: Binding affinity to 5HT2B receptor (unknown origin) assessed as inhibition constant
[11] = biological target: T4, 5-hydroxytryptamine receptor 2C; assay: Binding affinity to 5HT2C receptor (unknown origin) assessed as inhibition constant
[12] = biological target: T7, 5-hydroxytryptamine receptor 2B; assay: Binding affinity to 5HT2B receptor (unknown origin) at 10 uM relative to control; conditions: filed as antagonist
[13] = biological target: T8, Adenosine receptor A3 (Homo sapiens) (UniProt P0DMS8); assay: Displacement of […] from human A3AR expressed in HEK cells at 10 uM relative to control; type: cell-based
T8 sequence (whole entry): T3 sequence (P0DMS8 whole entry)

[14] = biological target: T7, 5-hydroxytryptamine receptor 2B; assay: Displacement of [3H]-LSD from human 5-HT2B receptor expressed in HEK cells assessed as inhibition constant incubated for 1 hr; type: cell-based
[15] = biological target: Beta-3 adrenergic receptor (Homo sapiens, UniProt P13945); assay: Binding affinity to beta3 adrenergic receptor (unknown origin) assessed as inhibition constant
[16] = biological target: 5-hydroxytryptamine receptor 1D (Homo sapiens, UniProt P28221); assay: Binding affinity to 5HT1D receptor (unknown origin) assessed as inhibition constant
[17] = biological target: T6, 5-hydroxytryptamine receptor 2C (Homo sapiens); assay: Displacement of [3H]-Mesulergine from human 5-HT2C expressed in Flp-In-T-REx-293 cells at 10 uM incubated for 1 hr relative to control; type: cell-based
[18] = biological target: Mu-type opioid receptor (Homo sapiens, UniProt P35372); assay: Binding affinity to MOR (unknown origin) assessed as inhibition constant
Sequence of Mu-type opioid receptor (P35372 whole entry): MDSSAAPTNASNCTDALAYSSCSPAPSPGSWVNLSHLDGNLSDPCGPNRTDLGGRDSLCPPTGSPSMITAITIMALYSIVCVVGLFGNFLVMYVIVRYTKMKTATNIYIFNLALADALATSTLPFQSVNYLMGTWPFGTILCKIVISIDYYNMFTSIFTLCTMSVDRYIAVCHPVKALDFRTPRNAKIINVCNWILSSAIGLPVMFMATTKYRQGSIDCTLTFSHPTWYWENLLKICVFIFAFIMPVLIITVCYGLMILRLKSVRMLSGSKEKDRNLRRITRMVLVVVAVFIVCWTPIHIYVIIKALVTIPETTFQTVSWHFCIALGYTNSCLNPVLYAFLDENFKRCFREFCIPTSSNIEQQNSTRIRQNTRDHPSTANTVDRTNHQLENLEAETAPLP

T7 sequence (P41595 whole entry): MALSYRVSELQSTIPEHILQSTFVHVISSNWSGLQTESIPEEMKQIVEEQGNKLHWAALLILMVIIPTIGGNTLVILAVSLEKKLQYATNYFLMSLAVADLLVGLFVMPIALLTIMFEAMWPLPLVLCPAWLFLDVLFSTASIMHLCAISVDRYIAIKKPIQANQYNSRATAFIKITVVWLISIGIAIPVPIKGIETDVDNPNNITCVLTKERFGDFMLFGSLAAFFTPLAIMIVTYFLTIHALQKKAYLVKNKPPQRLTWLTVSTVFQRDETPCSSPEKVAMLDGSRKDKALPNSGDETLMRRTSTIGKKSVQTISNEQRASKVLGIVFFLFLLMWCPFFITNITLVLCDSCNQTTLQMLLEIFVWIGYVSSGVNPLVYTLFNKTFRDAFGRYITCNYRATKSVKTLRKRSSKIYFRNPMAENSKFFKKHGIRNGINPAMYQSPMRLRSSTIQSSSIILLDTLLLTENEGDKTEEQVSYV
Sequence of Adenosine receptor A2a (Homo sapiens) (P29274 whole entry): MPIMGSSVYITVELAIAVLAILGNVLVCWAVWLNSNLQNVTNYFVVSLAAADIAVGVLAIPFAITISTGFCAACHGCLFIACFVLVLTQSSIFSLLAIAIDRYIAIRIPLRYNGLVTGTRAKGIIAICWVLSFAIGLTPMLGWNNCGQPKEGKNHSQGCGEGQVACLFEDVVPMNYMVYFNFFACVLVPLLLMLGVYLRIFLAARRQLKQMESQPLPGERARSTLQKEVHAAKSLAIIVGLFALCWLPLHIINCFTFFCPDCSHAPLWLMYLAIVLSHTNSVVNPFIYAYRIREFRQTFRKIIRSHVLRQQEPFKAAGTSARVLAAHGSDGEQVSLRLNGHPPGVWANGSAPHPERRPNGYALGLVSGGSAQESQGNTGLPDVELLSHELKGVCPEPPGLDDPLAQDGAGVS
T2 sequence (P28223 whole entry): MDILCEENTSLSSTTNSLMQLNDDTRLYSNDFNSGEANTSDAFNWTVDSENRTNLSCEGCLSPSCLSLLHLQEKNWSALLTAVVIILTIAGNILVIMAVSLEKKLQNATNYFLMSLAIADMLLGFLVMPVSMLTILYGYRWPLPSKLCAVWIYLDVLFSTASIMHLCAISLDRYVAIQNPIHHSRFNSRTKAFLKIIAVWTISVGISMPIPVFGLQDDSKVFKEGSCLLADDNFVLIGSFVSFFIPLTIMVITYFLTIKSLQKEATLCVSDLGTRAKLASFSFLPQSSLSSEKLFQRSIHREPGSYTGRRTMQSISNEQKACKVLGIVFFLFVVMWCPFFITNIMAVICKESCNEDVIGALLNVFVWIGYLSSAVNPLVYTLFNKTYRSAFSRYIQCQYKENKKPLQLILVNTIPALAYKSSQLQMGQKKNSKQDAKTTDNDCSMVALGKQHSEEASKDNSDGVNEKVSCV
Sequence of 5-hydroxytryptamine receptor 1D (P28221 whole entry): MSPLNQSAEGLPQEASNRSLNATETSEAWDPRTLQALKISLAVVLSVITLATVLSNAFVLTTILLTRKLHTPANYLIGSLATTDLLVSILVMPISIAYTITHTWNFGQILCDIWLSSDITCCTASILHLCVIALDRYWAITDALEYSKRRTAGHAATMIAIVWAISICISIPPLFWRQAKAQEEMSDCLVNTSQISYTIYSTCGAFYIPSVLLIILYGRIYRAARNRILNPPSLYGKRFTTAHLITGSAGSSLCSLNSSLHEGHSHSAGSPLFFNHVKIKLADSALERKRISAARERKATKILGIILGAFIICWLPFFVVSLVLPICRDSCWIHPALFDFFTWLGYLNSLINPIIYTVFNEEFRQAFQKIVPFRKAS
Sequence of Beta-3 adrenergic receptor (P13945 whole entry): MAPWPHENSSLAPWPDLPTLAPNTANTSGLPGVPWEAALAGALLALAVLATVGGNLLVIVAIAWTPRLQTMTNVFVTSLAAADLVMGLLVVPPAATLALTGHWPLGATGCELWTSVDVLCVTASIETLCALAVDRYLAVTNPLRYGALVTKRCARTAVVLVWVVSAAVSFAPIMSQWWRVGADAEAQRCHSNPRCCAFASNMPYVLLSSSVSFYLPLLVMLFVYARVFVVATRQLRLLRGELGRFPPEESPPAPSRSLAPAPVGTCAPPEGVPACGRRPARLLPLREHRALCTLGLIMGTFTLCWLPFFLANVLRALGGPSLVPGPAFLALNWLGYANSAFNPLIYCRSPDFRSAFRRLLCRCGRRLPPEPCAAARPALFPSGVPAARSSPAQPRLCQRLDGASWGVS
Sequence of Sodium-dependent dopamine transporter (Q01959 whole entry): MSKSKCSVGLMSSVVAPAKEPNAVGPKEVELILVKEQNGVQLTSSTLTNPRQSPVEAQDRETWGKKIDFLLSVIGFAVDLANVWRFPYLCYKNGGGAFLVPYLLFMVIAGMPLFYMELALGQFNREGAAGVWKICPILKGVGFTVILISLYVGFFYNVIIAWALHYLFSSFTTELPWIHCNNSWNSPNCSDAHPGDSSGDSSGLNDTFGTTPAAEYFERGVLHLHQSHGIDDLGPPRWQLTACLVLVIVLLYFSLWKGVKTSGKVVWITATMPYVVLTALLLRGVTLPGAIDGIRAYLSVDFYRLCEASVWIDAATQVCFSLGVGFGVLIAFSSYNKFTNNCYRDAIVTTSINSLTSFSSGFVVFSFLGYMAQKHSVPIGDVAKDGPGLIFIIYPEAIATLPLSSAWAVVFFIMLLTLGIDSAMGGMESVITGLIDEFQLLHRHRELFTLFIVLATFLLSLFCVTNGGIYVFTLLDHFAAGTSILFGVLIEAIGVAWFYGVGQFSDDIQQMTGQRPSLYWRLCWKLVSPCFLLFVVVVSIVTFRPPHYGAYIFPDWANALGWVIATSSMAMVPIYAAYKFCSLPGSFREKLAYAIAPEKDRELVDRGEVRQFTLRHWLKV

CSC[C@@]12C[C@@H]1[C@@H](n1cnc3c(NC(C4CCCC4)C4CCCC4)nc(Cl)nc31)[C@H](O)[C@@H]2O
Ki [1]: 1700 nM | Activity ([2]; filed as antagonist): 47% | Ki [3]: 5270 nM | Activity [4]: -12% | Ki [5]: 481 nM

O[C@H]1[C@H](n2cnc3c(NC(C4CCCC4)C4CCCC4)nc(Cl)nc32)[C@H]2C[C@@]2(CF)[C@H]1O
Ki [6]: 7900 nM | Activity [2]: 36% | Ki [3]: 7200 nM | Ki [7]: 1620 nM | Activity [4]: 21% | Ki [5]: 580 nM

O[C@@H]1[C@H](O)[C@@H]2C[C@@H]2[C@H]1n1ccc2c(NC(C3CC3)C3CC3)nc(I)nc21
Activity [8]: 30% | Activity [9]: 3% | Ki [10]: 1300 nM | pKi [10]: 5.88

O[C@H]1[C@H](n2cnc3c(NC(C4CCC4)C4CCC4)nc(Cl)nc32)[C@H]2C[C@@]2(CCl)[C@H]1O
Activity [9]: 28% | Ki [11]: 908 nM

OC[C@@]12C[C@@H]1[C@@H](n1cnc3c(NC(C4CCC4)C4CCC4)ncnc31)[C@H](O)[C@@H]2O
Activity [9]: 18% | Ki [11]: 1020 nM | Ki [10]: 186 nM

OC[C@H]1O[C@@H](n2cnc3c(NC(C4CCC4)C4CCC4)nc(Cl)nc32)[C@H](O)[C@@H]1O
Activity [9]: 31% | Activity [12]: 47%

COc1ccc(SC[C@@]23C[C@@H]2[C@@H](n2cnc4c(NC(C5CCCC5)C5CCCC5)nc(Cl)nc42)[C@H](O)[C@@H]3O)cc1OC
Activity ([13]; filed as agonist): 78% | Ki [14]: 256 nM | Ki [15]: 2100 nM | Activity [2]: 25% | Activity [4]: 19% | Ki [5]: 368 nM

O[C@H]1[C@H](n2cnc3c(NC(C4CCCCC4)C4CCCCC4)nc(Cl)nc32)[C@H]2C[C@@]2(CF)[C@H]1O
Ki [1]: 3600 nM | Ki [3]: 5040 nM | Ki [16]: 5500 nM | Activity [4]: -27% | Ki [5]: 163 nM

O[C@H]1[C@H](n2cnc3c(NC(C4CCCC4)C4CCCC4)nc(Cl)nc32)[C@H]2C[C@@]2(CSc2ccccc2F)[C@H]1O
Activity [13]: 1% | Ki [14]: 640 nM | Activity [2]: 36% | Activity [17]: 37% | Activity [4]: -10% | Ki [18]: 4900 nM

Reference: ChEMBL document CHEMBL5625223 (Eur J Med Chem, 2023)
